Values joined by “and” are separate entries in the source; they are usually repeats but may differ in a detail not shown here. Equal values may be shown once.
Test system: 832693-133-R-J1-PDC multi-cell spheroids, viability
Test: Anticancer human tumor 832693-133-R-J1-PDC patient-derived head and neck squamous carcinoma cell line growth inhibition [IpAb]
Details: for viability, T/C: stronger effect = lower value
Method in brief: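 Spheroids of 60% malignant cells, 25% HUVEC and 15% MSC were exposed to targeted agents combined with ipatasertib or abemaciclib. Doses started at or near clinical Cmax (10 microM when unknown) and fell in half-log steps.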
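Also: spheroids exposed to the drugs for one week before the viability readout.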
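For viability, T/C in this document: 100% = DMSO vehicle control wells.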

## C=CC(=O)N1CCN(c2nc(=O)n(-c3c(C)ccnc3C(C)C)c3nc(-c4c(O)cccc4F)c(F)cc23)C(C)C1 (centres undefined) + CCN1CCN(Cc2ccc(Nc3ncc(F)c(-c4cc(F)c5nc(C)n(C(C)C)c5c4)n3)nc2)CC1
Curve of first compound, second compound 0.01 µM
  IC50: > 10000 nM
Curve of first compound, second compound 0.0316 µM
  IC50: > 10000 nM
Curve of first compound, second compound 0.1 µM
  IC50: > 10000 nM
Curve of first compound, second compound 0.316 µM
  IC50: > 10000 nM
Curve of first compound, second compound 1 µM
  IC50: > 10000 nM
Second compound 0.01 µM, first compound 0.0316 µM
  viability, T/C: 96.7%
Second compound 0.01 µM, first compound 0.1 µM
  viability, T/C: 104%
Second compound 0.01 µM, first compound 0.316 µM
  viability, T/C: 105%
Second compound 0.01 µM, first compound 1 µM
  viability, T/C: 109%
Second compound 0.01 µM, first compound 3.16 µM
  viability, T/C: 117%
Second compound 0.01 µM, first compound 10 µM
  viability, T/C: 104%
Second compound 0.0316 µM, first compound 0.0316 µM
  viability, T/C: 89.5%
Second compound 0.0316 µM, first compound 0.1 µM
  viability, T/C: 89.6%
Second compound 0.0316 µM, first compound 0.316 µM
  viability, T/C: 90.5%
Second compound 0.0316 µM, first compound 1 µM
  viability, T/C: 92.2%
Second compound 0.0316 µM, first compound 3.16 µM
  viability, T/C: 115%
Second compound 0.0316 µM, first compound 10 µM
  viability, T/C: 95%
Second compound 0.1 µM, first compound 0.0316 µM
  viability, T/C: 68.8%
Second compound 0.1 µM, first compound 0.1 µM
  viability, T/C: 78.8%
Second compound 0.1 µM, first compound 0.316 µM
  viability, T/C: 73.3%
Second compound 0.1 µM, first compound 1 µM
  viability, T/C: 82.9%
Second compound 0.1 µM, first compound 3.16 µM
  viability, T/C: 101%
Second compound 0.1 µM, first compound 10 µM
  viability, T/C: 86.3%
Second compound 0.316 µM, first compound 0.0316 µM
  viability, T/C: 58.3%
Second compound 0.316 µM, first compound 0.1 µM
  viability, T/C: 59.3%
Second compound 0.316 µM, first compound 0.316 µM
  viability, T/C: 64%
Second compound 0.316 µM, first compound 1 µM
  viability, T/C: 64.9%
Second compound 0.316 µM, first compound 3.16 µM
  viability, T/C: 77.5%
Second compound 0.316 µM, first compound 10 µM
  viability, T/C: 84.2%
Second compound 1 µM, first compound 0.0316 µM
  viability, T/C: 53.8%
Second compound 1 µM, first compound 0.1 µM
  viability, T/C: 58.9%
Second compound 1 µM, first compound 0.316 µM
  viability, T/C: 65.5%
Second compound 1 µM, first compound 1 µM
  viability, T/C: 73.7%
Second compound 1 µM, first compound 3.16 µM
  viability, T/C: 82.4%
Second compound 1 µM, first compound 10 µM
  viability, T/C: 98.4%

## COc1c(OCCCN2CCOCC2)ccc2c3n(c(=NC(=O)c4cnc(N)nc4)nc12)CCN3
Compound 0.00316 µM
  viability, T/C: 93.8% and 99%
Compound 0.01 µM
  viability, T/C: 67.5% and 74.3%
Compound 0.0316 µM
  viability, T/C: 21.3% and 29.8%
Compound 0.1 µM
  viability, T/C: 9.21% and 9.49%
Compound 0.316 µM
  viability, T/C: 4.67% and 4.86%
Compound 1 µM
  viability, T/C: 4.72% and 4.34%
Curve of compound
  IC50: 15.5 nM and 18.8 nM

## Cc1nc(NC(=O)N2CCCC2C(N)=O)sc1-c1ccnc(C(C)(C)C(F)(F)F)c1 (centres undefined)
Compound 0.0316 µM
  viability, T/C: 93.3% and 84.1%
Compound 0.1 µM
  viability, T/C: 80.6% and 87.4%
Compound 0.316 µM
  viability, T/C: 66.7% and 55.5%
Compound 1 µM
  viability, T/C: 36.9% and 39.1%
Compound 3.16 µM
  viability, T/C: 17.8% and 12.8%
Compound 10 µM
  viability, T/C: 4.84% and 2.57%
Curve of compound
  IC50: 599 nM and 533 nM
